Test [1] concerns ovalbumin-sensitized/-challenged Brown-Norway rat. The test is described as follows: Late inflammatory airway reaction in the ovalbumin-sensitized/-challenged Brown-Norway rat (BAL). The note with it: summary of the table; i.t.; Roflumilast 0.3 μmol/kg, Pumafentrine 3 μmol/kg, Salmeterol 3 pmol/kg [sic].
Experimental: Sensitization was done by simultaneous injection of Bordetella pertussis suspension i.p. and OVA/AHG suspension s.c. on day 1, 14 and 21. 28 days after start of sensitization, conscious Brown-Norway rats were challenged by inhalation of the aerosolized OVA solution for 1 h (˜20 ml/h). Non-challenged, only sensitized animals were used as baseline control. The drugs (thoroughly mixed with lactose) or the placebo control (lactose) were administered intratracheally (i.t.) as dry powders 1 h before OVA-challenge. 48 h later, OVA-challenged or non-challenged animals were anaesthetized and bronchoalveolar lavage (BAL) was performed using 3×4 ml BAL buffer per animal. The number of total cells and eosinophils in the BAL fluid, and the concentration of protein in the cell-free BAL fluid were determined. Drug-induced relative changes were calculated and statistically analyzed by the Jonckheere Terpstra test.
The subject of the next test is PDE3. The test is described as follows: PDE3 inhibition (PDE3/4 IC50). In kind it is biochemical. Particulars: first value of PDE3/4 pair.
Another test relates to PDE4. The test is described as follows: PDE4 inhibition (PDE3/4 IC50). It is filed as biochemical. The note with it: second value of PDE3/4 pair.

SMILES strings stand for the structures.

With `OCc1cc(C(O)CNCCCCCCOCCCCc2ccccc2)ccc1O` (single isomer, unassigned; (+)) [Salmeterol, (+)-4-hydroxy-α^1-[[[6-(4-phenylbutoxy)hexyl]amino]methyl]-1,3-benzenedimethanol], the “effect on cell infiltration and protein accumulation in BAL fluid, in words” value in test [1] is “exhibited inhibitory effects”.
As for `CCOc1cc2c(cc1OC)C(c1ccc(C(=O)N(C(C)C)C(C)C)cc1)=N[C@@H]1CCN(C)C[C@H]21` [Pumafentrine], the IC50 (commonly the concentration needed to halve the response being measured) worked out at 28 nM in the test with PDE3 and 7 nM in the test with PDE4. Also, the “effect on cell infiltration and protein accumulation in BAL fluid, in words” value in test [1] was “did not show any significant effects”.
On the same counts, the results for `O=C(Nc1c(Cl)cncc1Cl)c1ccc(OC(F)F)c(OCC2CC2)c1` [Roflumilast] are greater than 10000 nM, 0.7 nM and “did not show any significant effects”.

The values are drawn from US7056936B2, “Synergistic combination” (Altana Pharma AG, priority 1998, dated 2006).
